Measured values published in patent US7402559B2, “Composition and method of treatment for urogenital conditions” (MSH Pharma, Incorporated, priority 1999, dated 2008).

Columns and labels:
[1] = relative to parent peptide or to the 11-13 sequence; cited from earlier work
[2] = relative to L-form tripeptide alpha-MSH (11-13); cited from earlier work
[3] = tested on: S. aureus (ATCC 29213); assay: S. aureus colony formation (viability); type: cell-based, Staphylococcus aureus; conditions: FIG. 1; significant at peptide concentrations of 10^−12 to 10^−4 M; 2 h at 37° C.
Method: (§1) Cultures of S. aureus (ATCC 29213) were obtained from the collection of the Department of Microbiology, Ospedale Maggiore di Milano. […] Cells were then washed in cold distilled water and diluted with HBSS to a concentration of 100 organisms/ml. One-milliliter aliquots were dispensed on blood agar plates and incubated for 24 hours at 37° C. Viability of the microorganisms was estimated from the colonies formed. In another set of experiments, 500 units of urokinase, a S. aureus growth enhancer, were also incubated with the bacteria (10^5/100 ml ) for four hours at 37° C. in a shaking water bath together with the peptides.

[4] = tested on: S. aureus; assay: Urokinase induced growth of S. aureus; type: cell-based, Staphylococcus aureus; conditions: FIG. 2; 10^−6 M peptide; 500 units urokinase, 4 h
Method: as §1

[5] = tested on: C. albicans; assay: C. albicans colony formation (CFU viability); type: cell-based, Candida albicans; conditions: for ability of C albicans to form colonies: FIG. 3, 10^−12 to 10^−4 M, p<0.01 vs. control; for effectiveness against C. albicans compared with fluconazole / C. albicans viability: FIG. 4; for effectiveness against C. albicans compared with fluconazole: 10^−6 to 10^−4 M, same molar concentration as fluconazole
Method: Clinical isolates of C. albicans were obtained from the collection of the Department of Microbiology, Ospedale Maggiore di Milano. Cultures of C. albicans were maintained on Sabouraud's agar slants and periodically transferred to Sabouraud's agar plates and incubated for 48 hours at 28° C. To prepare stationary growth-phase yeast, a colony was taken from the agar plate, transferred into 30 ml of Sabouraud-dextrose broth, and incubated for 72 hours at 32° C. Cells were centrifuged at 1000× g for ten minutes, and the pellet was washed twice with distilled water. Cells were counted and suspended in Hank's balanced salt solution (“HBSS”) to the desired concentration.
Cells were then washed in cold distilled water and diluted with HBSS to a concentration of 100 organisms/ml. One-milliliter aliquots were then dispensed on blood agar plates and incubated for 48 hours at 37° C. The organism's viability was estimated from the number of colonies formed.
[…] The effects of forskolin and ddAdo on the ability of C. albicans to form colonies were determined according to the procedures described in Example II.

[6] = tested on: C. albicans; assay: C. albicans germ tube formation induced by horse serum; type: cell-based, Candida albicans; conditions: 10^−6 M, 60 minutes at 37° C., germ tubes induced by horse serum
Method: C. albicans from stationary phase cultures were washed twice with distilled water and suspended in HBSS to a final concentration of 2×10^6/ml. Hyphal growth was induced by addition of 10% inactivated horse serum (GIBCO/BRL, Paisley, Great Britain) to yeast incubated for 45 minutes at 37° C. with continuous shaking. […] The percentage of filamentous cells was evaluated under a light microscope with the aid of a hemocytometer. Experiments were run in triplicate and at least 200 cells were scored. Photomicrographs were taken with a MC100 camera attached to an Axioskop Zeiss microscope.

[7] = tested on: C. albicans; assay: Neutrophil killing of C. albicans; type: cell-based, human neutrophils; Candida albicans; conditions: FIG. 6; 10^−12 to 10^−4 M; p<0.01
Method: Venous blood (20 ml) from healthy volunteers was anticoagulated with heparin. Neutrophils were then isolated using dextran sedimentation and centrifugation with Ficoll-Hypaque (Sigma Chemical Co., St. Louis, Mo., USA). Erythrocytes were lysed via hypotonic shock with the resulting neutrophils representing at least 97% of the cell suspension. Cell viability, estimated by trypan blue exclusion, was greater than 98%. Neutrophils were resuspended in HBSS for the experiments. […] After incubation, the culture tubes were placed on ice to stop growth, and extracellular organisms were washed twice with centrifugation at 1000-× g at 4° C. A 2.5% sodium deoxycholate solution was added to the suspension, and the tubes were shaken for five minutes. Cold distilled water was then added to obtain a suspension of 10^6 cells/ml. Two 1/100 serial dilutions in HBSS were made to obtain a final suspension of 100 cells/ml. One-milliliter aliquots were then dispensed on blood agar plates and incubated for 48 hours at 37° C. Colony forming units were counted at the end of the incubation period with experiments running in triplicate and repeated using blood from five different donors.

[8] = tested on: C. albicans; assay: cAMP content in permeabilized C. albicans (enzyme immunoassay); type: cell-based, Candida albicans; conditions: FIG. 7; 10^−6 M, three minutes
Method: The reactions were stopped after three minutes by the addition of ice cold ethanol. cAMP levels were measured in duplicate using a commercial enzyme immunoassay kit (Amersham, United Kingdom) after extraction via the liquid-phase method according to the manufacturer's instructions.

[9] = tested on: HIV-1; conditions: FIG. 10; broad range of concentrations; TNF-α 10 ng/ml
Source text: (§2) The chronically HIV-1 infected promonocytic U1 cell line is an in vitro model of latent HIV infection in monocytes. These cells carry two integrated proviral copies of HIV, and constitutive expression of HIV is very low. Viral replication, however, as measured by RNA transcription, p24 antigen, or reverse transcriptase release, can be activated with different stimuli such as TNF-α, IL-6, IL-10, PMA or crowding of cells.
Pilot experiments were first performed to determine optimal cell density, stimuli concentration, and kinetics of HIV-1 p24 antigen production using these culture conditions. Before use, cells were washed three times with HBSS to remove extracellular viruses.
(§3) Crowding was achieved by seeding U1 cells at a density of 2×10^5/ml and maintaining them in culture at 37° C. in 5% CO2 without changing media for seven days. Cultures activated with cytokines or PMA were maintained for only 48 hours. Supernatants were then removed by centrifugation and assayed for p24 antigen using commercially available ELISA kits from Cellular Products, Inc. in Buffalo, N.Y., USA. Reverse transcriptase releases were also measured using a commercially available kit, ELISA Retrosys RT assay from Innovagen, Lund, Sweden.

[10] = tested on: HIV-1; conditions: FIG. 11; 10^−5 M
Source text: as §2, §3

[11] = tested on: NF-κB
Method: Cells were washed once with cold PBS, and twice with buffer A (10 mM Hepes pH 7.9, 1.5 mM MgCl2, 10 mM KCl, 0.5 mM PMSF and 0.5 mM DTT), centrifuged, and incubated for ten minutes on ice in buffer A plus 0.1% NP-40. Afterwards, the supernatants were removed, and the nuclear pellets were resuspended in 15 μl of buffer C (20 mM Hepes pH 7.9, 1.5 mM MgCl2, 0.42 M KCl, 0.2 mM EDTA, 25% glycerol, 0.5 mM PMSF, and 0.5 mM DTT), incubated for 15 minutes on ice, mixed, and then centrifuged. The supernatants were diluted with 75 μl of modified buffer D (20 mM Hepes, pH 7.9, 0.05 mM KCl, 0.2 mM EDTA, 20% glycerol, 0.5 mM PMSF, and 0.5 mM DTT) and stored at −80° C. […] Each oligonucleotide was annealed to its complementary strand and end-labeled with ^32P-γ-ATP using polynucleotide kinase. For the determination of specific bands, nuclear extracts were first incubated with 100 fold excess unlabeled probe for five minutes, before incubation with a labeled probe. […] The gels were dried and autoradiographed.

[12] = tested on: HIV-1 RNA; conditions: FIG. 12; PMA stimulated U1 cells

[Nle^4, D-Phe^7]-alpha-MSH
antipyretic potency [1]: approximately ten times more potent

8-13 sequence: alpha-MSH 8-13 fragment (RWGKPV; Designed polypeptide with anti-inflammatory, anti-microbial, anti-fungal, and anti-viral properties.)
antipyretic potency [1]: greater than that of the 11-13 sequence

MEHFRWG [alpha-MSH sequence (4-10)]
anti-inflammatory activity / general potency [2]: little antipyretic and anti-inflammatory activity

SYSMEHFRWGKPV [alpha-MSH (1-13)]
S. aureus colony formation [3]: inhibited | growth enhancing effect of urokinase on S. aureus [4]: significantly countered | ability of C albicans to form colonies [5]: greatly reduced | effectiveness against C. albicans compared with fluconazole [5]: most effective | reduction in the number of filamentous cells [6]: 28-32% | neutrophil killing of C. albicans [7]: enhanced | cAMP content in C. albicans [8]: enhanced | p24 antigen release from TNF-α stimulated U1 cells [9]: significantly inhibited

ACTH fragment (18-39): ACTH fragment (18-39) (CLIP) (RPVKVYPAGEDDEASEAFPLEF; Designed polypeptide with anti-inflammatory, anti-microbial, anti-fungal, and anti-viral properties.) [reference compound]
C. albicans viability [5]: did not reduce

ACTH (1-39): adrenocorticotropic hormone (1-39) (SYSMEHFRWGKPVGKKRRPVKVYPAGEDDEASEAFPLEF; Designed polypeptide with anti-inflammatory, anti-microbial, anti-fungal, and anti-viral properties/naturally occurring peptide.; listed as Homo sapiens) [reference compound]
C. albicans viability [5]: did not reduce

HFRWGKPV (Ac-HFRWGKPV-NH2) [alpha-MSH (6-13)]
effectiveness against C. albicans compared with fluconazole [5]: most effective | reduction in the number of filamentous cells [6]: approximately 50%

Ac-[D-K11]-alpha-MSH 11-13-NH2 [reference compound]
anti-inflammatory activity / general potency [2]: same general potency

10-13 sequence: alpha-MSH (11-13) with glycine added to form the 10-13 sequence (GKPV; Designed pollypeptide with anti-inflammatory, anti-microbial, anti-fungal, and anti-viral properties.)
antipyretic potency [1]: slightly decreased potency

dideoxyadenosine [ddAdo, reference compound]
effect of ddAdo on alpha-MSH (1-13) and (11-13) inhibition of C. albicans growth ([5]; FIG. 9, ddAdo 25, 50, and 100×10^−5 M for two hours, then peptides two hours): reverse the effect

Lysine-Proline-Valine [alpha-MSH (11-13)]
S. aureus colony formation [3]: inhibited | growth enhancing effect of urokinase on S. aureus [4]: significantly countered | ability of C albicans to form colonies [5]: greatly reduced | effectiveness against C. albicans compared with fluconazole [5]: most effective | growth of C. albicans relative to the control group ([5]; FIG. 8, p<0.01): significantly inhibited | neutrophil killing of C. albicans [7]: enhanced | cAMP content in C. albicans [8]: enhanced | reverse transcriptase release from U1 cells induced by IL-6, IL-10, PMA and in crowding condition [10]: inhibited | NF-κB activation, TNF-α stimulated cells [11]: significantly reduced | NF-κB activation, resting cells [11]: did not alter | transcription of spliced and unspliced HIV-1 RNA [12]: inhibited

9-13 sequence: alpha-MSH 9-13 fragment (WGKPV; Designed polypeptide with anti-inflammatory, anti-microbial, anti-fungal, and anti-viral properties.)
antipyretic potency [1]: almost devoid of activity
